The record followed here is patent US6455550B1, “N-alkanoylphenylalanine derivatives” (Hoffmann-La Roche Inc., priority 1997, dated 2002).

Molecules are shown by their SMILES. Read-outs that look alike come from different tables or passages of the source.

In this assay the target is T1, VLA-4 (α4β1 integrin) binding to immobilized VCAM-1 (Homo sapiens, UniProt P05556+P13612).
T1 construct: followed by 10 μl of Ramos cell-derived VLA-4; endogenous in cells; host or cells: Ramos cells (VLA-4 preparation derived from the cells)
The assay can be described thus: VLA-4/VCAM-1 Screening Assay (solid-phase, dual antibody ELISA). The settings on record: for IC50: Ramos cell-derived VLA-4, recombinant human VCAM-1 coated plates, 2 hr at 37° C. Here is the method:
VLA-4 antagonist activity, defined as ability to compete for binding to immobilized VCAM-1 was quantitated using a solid-phase, dual antibody ELISA. VLA-4 (α4β1 integrin) bound to VCAM-1 was detected by a complex of anti-integrin β1 antibody: HRP-conjugated anti-mouse IgG: chromogenic substrate (K-Blue). Initially, this entailed coating 96 well plates (Nunc Maxisorp) with recombinant human VCAM-1 (0.4 μg in 100 μl PBS), sealing each plate and then allowing the plates to stand at 4° C for Å18 hr. […] On the day of assay, all plates were washed twice with VCAM Assay Buffer (200 μl/well of 50 mM Tris-HCl, 100 mM NaCl, 1 mM MnCl2, 0.05% Tween 20; pH 7.4). Test compounds were dissolved in 100% DMSO and then diluted 1:20 in VCAM Assay Buffer supplemented with 1 mg/mL BSA (i.e., final DMSO=5%). […] 100 μl per well of each dilution was added to the VCAM-coated plates, followed by 10 μl of Ramos cell-derived VLA-4. These plates were sequentially mixed on a platform shaker for 1 min, incubated for 2 hr at 37° C. and then washed four times with 200 μl/well VCAM Assay Buffer. 100 μl of mouse anti-human integrin β1 antibody was added to each well (0.6 μg/mL in VCAM Assay Buffer+1 mg/mL BSA) and allowed to incubate for 1 hr at 37° C. At the conclusion of this incubation period, all plates were washed four times with VCAM Assay Buffer (200 μl/well). A corresponding second antibody, HRP-conjugated goat anti-mouse IgG (100 μl per well @1:800 dilution in VCAM Assay Buffer+1 mg/mL BSA), was then added to each well, followed by a 1 hr incubation at room temperature and concluded by three washes (200 μl/well) with VCAM Assay Buffer. Color development was initiated by addition of 100 μl K-Blue per well (15 min incubation, room temp) and terminated by addition of 100 μl Red Stop Buffer per well. […] Results were calculated as % inhibition of total binding (i.e., VLA-4+VCAM-1 in the absence of test compound).
In general terms: ELISA stands for enzyme-linked immunosorbent assay.

T1 sequence (P13612 34-1032): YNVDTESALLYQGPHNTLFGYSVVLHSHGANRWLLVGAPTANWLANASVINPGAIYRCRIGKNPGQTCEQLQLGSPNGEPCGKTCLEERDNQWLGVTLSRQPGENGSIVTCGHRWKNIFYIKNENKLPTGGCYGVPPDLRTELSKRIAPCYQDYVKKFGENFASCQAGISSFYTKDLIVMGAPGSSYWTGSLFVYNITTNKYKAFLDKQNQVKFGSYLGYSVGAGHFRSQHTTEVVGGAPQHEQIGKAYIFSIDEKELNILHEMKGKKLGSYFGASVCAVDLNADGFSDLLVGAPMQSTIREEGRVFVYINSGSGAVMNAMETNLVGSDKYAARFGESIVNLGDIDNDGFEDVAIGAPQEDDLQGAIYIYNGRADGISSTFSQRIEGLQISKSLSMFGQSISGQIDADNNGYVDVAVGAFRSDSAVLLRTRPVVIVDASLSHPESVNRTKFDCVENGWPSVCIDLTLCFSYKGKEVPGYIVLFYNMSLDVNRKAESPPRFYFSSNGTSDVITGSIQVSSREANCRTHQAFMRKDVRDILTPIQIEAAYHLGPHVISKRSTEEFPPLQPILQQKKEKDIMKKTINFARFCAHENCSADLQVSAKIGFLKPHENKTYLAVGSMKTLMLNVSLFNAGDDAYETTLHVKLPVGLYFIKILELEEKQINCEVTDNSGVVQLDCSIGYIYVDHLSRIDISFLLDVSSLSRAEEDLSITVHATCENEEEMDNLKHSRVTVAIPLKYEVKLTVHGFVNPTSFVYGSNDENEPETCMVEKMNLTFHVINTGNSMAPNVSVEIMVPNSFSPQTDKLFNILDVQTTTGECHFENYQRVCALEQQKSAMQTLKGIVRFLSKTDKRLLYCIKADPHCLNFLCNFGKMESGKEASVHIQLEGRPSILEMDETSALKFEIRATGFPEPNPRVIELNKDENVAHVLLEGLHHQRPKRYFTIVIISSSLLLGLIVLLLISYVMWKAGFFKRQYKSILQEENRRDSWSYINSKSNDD
T1 sequence (P05556 21-798): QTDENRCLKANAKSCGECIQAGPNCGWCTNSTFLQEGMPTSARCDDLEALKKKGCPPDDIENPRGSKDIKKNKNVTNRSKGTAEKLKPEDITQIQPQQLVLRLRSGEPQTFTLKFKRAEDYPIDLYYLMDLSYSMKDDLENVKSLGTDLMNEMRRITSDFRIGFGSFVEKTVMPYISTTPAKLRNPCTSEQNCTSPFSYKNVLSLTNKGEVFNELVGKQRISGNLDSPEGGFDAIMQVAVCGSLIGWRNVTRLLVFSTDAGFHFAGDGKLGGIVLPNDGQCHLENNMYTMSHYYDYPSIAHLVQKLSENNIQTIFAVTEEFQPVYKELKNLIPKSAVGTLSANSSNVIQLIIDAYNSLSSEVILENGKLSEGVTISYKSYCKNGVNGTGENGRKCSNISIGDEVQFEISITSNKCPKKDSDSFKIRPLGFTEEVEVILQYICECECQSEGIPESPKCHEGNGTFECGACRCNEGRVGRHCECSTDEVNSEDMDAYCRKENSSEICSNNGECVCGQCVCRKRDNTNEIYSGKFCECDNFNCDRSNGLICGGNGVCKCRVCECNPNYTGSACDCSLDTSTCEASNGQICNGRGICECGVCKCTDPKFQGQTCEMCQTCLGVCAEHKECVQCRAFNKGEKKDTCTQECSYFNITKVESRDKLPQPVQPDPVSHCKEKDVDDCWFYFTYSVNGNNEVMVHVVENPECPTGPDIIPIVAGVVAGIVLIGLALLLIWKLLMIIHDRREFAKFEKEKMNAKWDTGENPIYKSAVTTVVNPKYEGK

As to `COc1ccc(C2(C(=O)N[C@@H](Cc3ccc(NS(=O)(=O)c4c(C)cc(C)cc4C)cc3)C(=O)O)CCCCC2)cc1` [Example 114, N-[[1-(4-Methoxyphenyl)cyclohexyl]carbonyl]-4-[[(2,4,6-trimethylphenyl)sulfonyl]amino]-L-phenylalanine], the half-maximal inhibitory concentration (IC50) (read-out: IC50) was determined as 155 nM.
With `COCCC1(C(=O)NC(Cc2ccc(N3C(=O)C(CC(C)C)N(C(C)=O)C3c3ccc(Cl)cc3)cc2)C(=O)O)CCCC1` (single isomer, unassigned) [Example 133], the IC50 (read-out: IC50) was found to be 60 nM.
With `CC1(C(=O)N[C@@H](Cc2ccc(NC(=O)c3ccnc4ccccc34)cc2)C(=O)O)CC1(Cl)Cl` (stereo partly drawn) [Example 64, N-[(2,2-Dichloro-1-methylcyclopropyl)carbonyl]-4-[(4-quinolinylcarbonyl)amino]-L-phenylalanine], the IC50 (read-out: IC50) stood at 3 nM.
Take `O=C(Nc1ccc(CC(NC(=O)C23CC4CC(CC(C4)C2)C3)C(=O)O)cc1)c1ccc(F)cc1C(F)(F)F` (stereo not drawn) [Example 84]: the IC50 (read-out: IC50) was 4.4 nM.
For `Cc1ccc([N+](=O)[O-])cc1C(=O)Nc1ccc(C[C@H](NC(=O)C23CC4CC(CC(C4)C2)C3)C(=O)O)cc1` [Example 85], the IC50 (read-out: IC50) amounted to 0.43 nM.
Compound `O=C(Nc1ccc(C[C@H](NC(=O)C2(c3ccccc3)CCCC2)C(=O)O)cc1)c1ccnc2ccccc12` [Example 75] registered an inhibition at 0.01 µM of 68% and an inhibition at 0.1 µM of 92%. The 50% inhibitory concentration (IC50) (read-out: IC50) was found to be 3.8 nM.
Regarding `Cc1cc(C)c(S(=O)(=O)Nc2ccc(C[C@H](NC(=O)C34CC5CC(CC(C5)C3)C4)C(=O)O)cc2)c(C)c1` [Example 115, N-[(1-Adamantyl)carbonyl]-4-[[(2,4,6-trimethylphenyl)sulfonyl]amino]-L-phenylalanine], the IC50 (read-out: IC50) came out at 22.7 nM.
As for `COc1ccc(C2(C(=O)NC(Cc3ccc(NC(=O)C(Cc4ccc(O)cc4)NC(C)=O)cc3)C(=O)O)CCCCC2)cc1` (stereo not drawn) [Example 106], the IC50 (read-out: IC50) is 13.5 nM.
In the case of `CC(=O)N[C@@H](Cc1ccc(O)cc1)C(=O)Nc1ccc(C[C@H](NC(=O)C23CC4CC(CC(C4)C2)C3)C(=O)O)cc1` [Example 86], the IC50 (read-out: IC50) came to 6.8 nM.
For the compound `Cc1ccc([N+](=O)[O-])cc1C(=O)Nc1ccc(C[C@H](NC(=O)C2(Cc3ccccc3)CCCC2)C(=O)O)cc1` [Example 36, 4-[[(2-Methyl-5-nitrophenyl)carbonyl]amino]-N-[[1-(phenylmethyl)cyclopentyl]carbonyl]-L-phenylalanine], the IC50 (read-out: IC50) amounted to 4.6 nM.
For the compound `CCCCC(C)(CC)C(=O)N[C@@H](Cc1ccc(NC(=O)N2CCC(C#N)(c3ccccc3)CC2)cc1)C(=O)O` (stereo partly drawn) [Example 120], the IC50 (read-out: IC50) worked out at 2.9 nM.
Same read-out and setting: in the case of `N#CC1(c2ccccc2)CCN(C(=O)Nc2ccc(C[C@H](NC(=O)C34CC5CC(CC(C5)C3)C4)C(=O)O)cc2)CC1` [Example 118] it was 0.35 nM; in that of `O=C(Nc1ccc(C[C@H](NC(=O)C2(Cc3ccccc3)CCCC2)C(=O)O)cc1)c1ccccc1[N+](=O)[O-]` [Example 35, 4-[[(2-Nitrophenyl)carbonyl]amino]-N-[[1-(phenylmethyl)cyclopentyl]carbonyl]-L-phenylalanine], 5 nM.
The same measure, in the same setting: with `CC1(C(=O)N[C@@H](Cc2ccc(NC(=O)CCN3CCCCC3)cc2)C(=O)O)CC1(Cl)Cl` (stereo partly drawn) [Example 99] the figure was 2.1 nM.
`COc1ccc(C2(C(=O)N[C@@H](Cc3ccc(NC(=O)N4CCC(C#N)(c5ccccc5)CC4)cc3)C(=O)O)CCCCC2)cc1` [Example 122]: the IC50 (read-out: IC50) was 2.1 nM.
Consider `COCCC1(C(=O)NC(Cc2ccc(N3C(=O)C(CC(C)C)N(C(C)=O)C3c3ccc(OC)cc3)cc2)C(=O)O)CCCC1` (single isomer, unassigned) [Example 130], for which the half-inhibitory concentration (IC50) (read-out: IC50) worked out at 6.6 nM.
The compound `Cc1ccc(C2(C(=O)N[C@@H](Cc3ccc(NC(=O)c4ccnc5ccccc45)cc3)C(=O)O)CCCC2)cc1` [Example 78] showed an inhibition at 0.01 µM of 63% and an inhibition at 0.1 µM of 93%. Moreover, where the note is “read-out: IC50”, the 50% inhibitory concentration (IC50) is 9 nM.
As for `Cn1nnnc1-c1cccc(CC2(C(=O)N[C@@H](Cc3ccc(NC(=O)c4c(Cl)cccc4Cl)cc3)C(=O)O)CCCC2)c1` [Example 48], the IC50 (read-out: IC50) came out at 0.44 nM.
For `O=C(Nc1ccc(C[C@H](NC(=O)C2(Cc3ccccc3)CCCC2)C(=O)O)cc1)c1c(Cl)cccc1Cl` [Example 37, 4-[[(2,6-Dichlorophenyl)carbonyl]amino]-N-[[1-(phenylmethyl)cyclopentyl]carbonyl]-L-phenylalanine], for the setting “read-out: IC50”, the IC50 was determined as 5 nM.
As for `N#CC1(C(=O)N[C@@H](Cc2ccc(NC(=O)CCN3CCCCC3)cc2)C(=O)O)CCCC1` [Example 92], where the note is “read-out: IC50”, the half-maximal inhibitory concentration (IC50) worked out at 3 nM.
In turn, `COc1ccc(C2(C(=O)N[C@@H](Cc3ccc(NC(=O)c4ccnc5ccccc45)cc3)C(=O)O)CCCCC2)cc1` [Example 79] gave an inhibition at 0.01 µM of 77% and an inhibition at 0.1 µM of 95%. Besides, the IC50 (read-out: IC50) came to 1.2 nM.
As to `CCCCC(CC)C(=O)NCCC1(C(=O)N[C@@H](Cc2ccc(NC(=O)c3c(Cl)cccc3Cl)cc2)C(=O)O)CCCC1` (stereo partly drawn) [Example 161], the IC50 (read-out: IC50) is 9.4 nM.
Still for that read-out and setting: with `O=C(NCCC1(C(=O)N[C@@H](Cc2ccc(NC(=O)c3c(Cl)cccc3Cl)cc2)C(=O)O)CCCC1)c1ccc2c(c1)OCO2` [Example 165] the figure was 11 nM; with `O=C(Nc1ccc(C[C@H](NC(=O)C23CC4CC(CC(C4)C2)C3)C(=O)O)cc1)c1c(Cl)cccc1Cl` [Example 83], 1.1 nM.
Compound `CC1(C(=O)N[C@@H](Cc2ccc(NC(=O)c3ccnc4ccccc34)cc2)C(=O)O)CCCCC1` [Example 70] gave an inhibition at 0.01 µM of 49% and an inhibition at 0.1 µM of 86%. The concentration for half-maximal inhibition (IC50) (read-out: IC50) worked out at 7 nM.
As for `COc1ccc(CC2(C(=O)N[C@@H](Cc3ccc(NC(=O)[C@H](Cc4ccc(O)cc4)NC(C)=O)cc3)C(=O)O)CCCC2)cc1` [Example 98], where the note is “read-out: IC50”, the 50% inhibitory concentration (IC50) turned out to be 11.7 nM.
Regarding `COc1cccc(CC2(C(=O)N[C@@H](Cc3ccc(NC(=O)c4c(Cl)cccc4Cl)cc3)C(=O)O)CCCC2)c1` [Example 52], the IC50 (IC50 nM) came to 1.1 nM.
With `COCCC1(C(=O)NC(Cc2ccc(N3C(=O)C(CC(C)C)N(C(C)=O)C3c3ccc(OC)cc3)cc2)C(=O)O)CCCC1` (single isomer, unassigned) [Example 137], the IC50 (read-out: IC50) was determined as 19 nM.
On to `COCCC1(C(=O)NC(Cc2ccc(N3C(=O)C(CC(C)C)N(C(C)=O)C3c3ccc(OC)cc3)cc2)C(=O)O)CCCC1` (single isomer, unassigned) [Example 136], for which, under “read-out: IC50”, the 50% inhibitory concentration (IC50) turned out to be 0.73 nM.
Compound `CCC(C(=O)N[C@@H](Cc1ccc(NC(=O)c2ccnc3ccccc23)cc1)C(=O)O)c1ccccc1` (stereo partly drawn) [Example 69] registered an inhibition at 0.01 µM of 49% and an inhibition at 0.1 µM of 87%. Also, the IC50 (read-out: IC50) is 5.8 nM.
On to `CCCCC(C)(CC)C(=O)N[C@@H](Cc1ccc(NC(=O)c2cc([N+](=O)[O-])ccc2C)cc1)C(=O)O` (stereo partly drawn) [Example 90], for which, where the note is “read-out: IC50”, the half-inhibitory concentration (IC50) stood at 1.04 nM.
`COc1ccc(CC2(C(=O)NC(Cc3ccc(NC(=O)c4c(Cl)cccc4Cl)cc3)C(=O)O)CCCC2)cc1OC` (stereo not drawn) [Example 54]: under “read-out: IC50”, the IC50 was 0.82 nM.
As for `Cn1nc(C(C)(C)C)cc1C(=O)NCCC1(C(=O)N[C@@H](Cc2ccc(NC(=O)c3c(Cl)cccc3Cl)cc2)C(=O)O)CCCC1` [Example 167], where the note is “read-out: IC50”, the IC50 was found to be 9.2 nM.
With `O=C(Nc1ccc(C[C@H](NC(=O)C2(Cc3ccccc3Cl)CCCC2)C(=O)O)cc1)c1c(Cl)cccc1Cl` [Example 51], the IC50 (IC50 nM) was found to be 1.6 nM.
For the compound `CCCCC(C)(CC)C(=O)N[C@@H](Cc1ccc(NC(=O)c2ccc(F)cc2C(F)(F)F)cc1)C(=O)O` (stereo partly drawn) [Example 89], the half-maximal inhibitory concentration (IC50) (read-out: IC50) is 81 nM.

For orientation: IC50 means the concentration at which inhibition is half-maximal. One may read the inhibition as the change of the read-out against control, counted positive when it falls. Low readings indicate little suppression, high ones strong suppression.
